# Source: paper PMC11032351, “Epigenetic modulation through BET bromodomain inhibitors as a novel therapeutic strategy for progranulin-deficient frontotemporal dementia” (Scientific Reports, 2024)
# Assays:
# PGRN-Luc = assay: HMC3 PGRN-luciferase reporter assay; type: cell-based, human; conditions: HMC3 PGRN-Luc cells, 8 h of treatment
# Description: HMC3 PGRN-Luc cells were trypsinized from confluent T-75 flasks and re-suspended in HMC-3 media at 150,000–200,000 cells/mL. 30 µL of cell suspension was then seeded onto each well of black, 384-well clear-bottom plates (Corning 3712) using the Multidrop Combi (Thermo Fisher). Cells were allowed to adhere to plates in the incubator at 37 °C/5% CO2 for 6–8 h. After 6–8 h, compounds were added to each well using the D300e (Tecan) compound dispenser, and all wells were DMSO-normalized (0.3%). Cells were allowed to incubate with compounds for indicated timeframes.
# Plates were removed from the incubator and allowed to cool to RT. 15 µL of media was removed from each well using a multichannel pipette and added to separate Corning 3712 plates for a read of “secreted” PGRN. To both the media-containing plates as well as the cell-containing plates (with 15 µL media remaining) is then added 15 µL of active luminescence reagent (Thermo 18,636) which was generated according to manufacturer’s instructions. Plates were allowed to nutate at RT for 15 min prior to reading using the EnVision (PerkinElmer). For calculation of the internal PGRN-Luc signal, the secreted signal (15 µL media) was subtracted from the signal of the cell-containing plates (with 15 µL media remaining). For “total” PGRN-Luc signal, a sample of media was not aliquoted into a separate plate, and instead, 30 µL of active luminescence reagent was added directly to each well.
# For the mivebresib and panobinostat time-course experiment, the above procedure was followed, with the exception that cells were seeded at 66,600 cells/mL in 30 µL media, and allowed to grow overnight prior to compound addition for the indicated timeframes.
# recombinant BRD4 BD2 = target: recombinant BRD4 BD2; design: method as in PMID 31969702, PMID 32193360, doi:10.1002/anse.202200020; conditions: read-out: KD against recombinant BRD4 BD2; cited from earlier work
# recombinant BRD4 BD1 = target: recombinant BRD4 BD1; design: method as in PMID 31969702, PMID 32193360, doi:10.1002/anse.202200020; conditions: read-out: KD against recombinant BRD4 BD1; cited from earlier work
# BRD4 protein levels = assay: Immunoblotting of BRD4 in human NPCs; type: cell-based; conditions: co-treatment with MLN-4924 (1 µM) and mivebresib (1 µM)
# Description: Gels were then transferred onto PVDF membranes (Immobilon-P, Millipore IPVH00010). […] Membranes were washed with TBST for 1 h, and developed with the chemiluminescence reagents used above.
# NPCs were cultured normally in 6-well plates as described previously. […] Plates returned to the incubator. […] Plates returned to the incubator. After 4 h, to the indicated wells is directly added 1 µL 2 mM mivebresib (MedChem Express HY-100015) in DMSO for a final concentration of 1 µM, or 1 µL DMSO. All plates were returned to the incubator overnight. […] 200 µL of supernatant was then transferred to a fresh, labeled Eppendorf rube, which was then stored at − 20 °C prior to further analysis. Sample concentration was quantified using the BCA assay as described above, and normalized to 250 µg/mL in M-PER lysis buffer prior to PGRN quantification using the Jess.
# lysosomal genes = assay: RNA sequencing of human dermal fibroblasts, lysosomal genes; type: cell-based; conditions: 24 h
# Description: Non-immortalized HDF cells (UCSF Memory and Aging Center, FTD25(X)) were cultured in high glucose DMEM with 10% FBS with supplemented L-glutamine and Pen/Strep, and grown in 100 mm plates for treatment. Cells were treated with DMSO or 1 μM mivebresib (1% DMSO) for 24 h. Trizol (Invitrogen) was used to isolate total cellular RNA, according to the manufacturer's protocol. RNA concentrations were assessed using a NanoDrop spectrophotometer (Thermo Scientific) and samples were diluted to 100 ng/10 μL in nuclease-free water (Ambion). 5 μg of each RNA sample was submitted for processing. Gene set enrichment analysis for lysosomal genes (list from Sardiello et al. 2009, Table S1) was performed using GSEA Desktop v3.0, with the following input parameters: number of permutations: 1000, scoring scheme: weighted, normalization mode: […], ranking metric: Signal2Noise, sorting: real[42]-[44]. […] Input queried against “Literature” library.
smiles,measurement,setting,value
CCS(=O)(=O)Nc1ccc(Oc2ccc(F)cc2F)c(-c2cn(C)c(=O)c3[nH]ccc23)c1 [mivebresib],total (combined internal and secreted) PGRN-Luc signal,PGRN-Luc,to the same extent as did panobinostat
same,Kd,recombinant BRD4 BD2,≤ 2 nM
same,Kd,recombinant BRD4 BD1,≤ 2.8 nM
same,enhancement of BRD4 protein levels,BRD4 protein levels,~ fourfold
same,lysosomal genes significantly upregulated,"lysosomal genes; 1 µM, pre-defined list of lysosomal genes",68/89
same,Log2(fold-change) ABCA2,"lysosomal genes; gene ABCA2, 1 µM, vs DMSO",0.969
same,Log2(fold-change) ABCB9,"lysosomal genes; gene ABCB9, 1 µM, vs DMSO",0.753
same,Log2(fold-change) ACP2,"lysosomal genes; gene ACP2, 1 µM, vs DMSO",0.071
same,Log2(fold-change) ACP5,"lysosomal genes; gene ACP5, 1 µM, vs DMSO",1.631
same,Log2(fold-change) AGA,"lysosomal genes; gene AGA, 1 µM, vs DMSO",1.111
same,Log2(fold-change) ARSA,"lysosomal genes; gene ARSA, 1 µM, vs DMSO",0.958
same,Log2(fold-change) ARSB,"lysosomal genes; gene ARSB, 1 µM, vs DMSO",0.697
same,Log2(fold-change) ARSG,"lysosomal genes; gene ARSG, 1 µM, vs DMSO",0.426
same,Log2(fold-change) ASAH1,"lysosomal genes; gene ASAH1, 1 µM, vs DMSO",1.724
same,Log2(fold-change) CD63,"lysosomal genes; gene CD63, 1 µM, vs DMSO",0.465
same,Log2(fold-change) CD68,"lysosomal genes; gene CD68, 1 µM, vs DMSO",0.237
same,Log2(fold-change) CLCN7,"lysosomal genes; gene CLCN7, 1 µM, vs DMSO",1.349
same,Log2(fold-change) CLN3,"lysosomal genes; gene CLN3, 1 µM, vs DMSO",-0.112
same,Log2(fold-change) CLN5,"lysosomal genes; gene CLN5, 1 µM, vs DMSO",0.974
same,Log2(fold-change) CPVL,"lysosomal genes; gene CPVL, 1 µM, vs DMSO",4.550
same,Log2(fold-change) CREG1,"lysosomal genes; gene CREG1, 1 µM, vs DMSO",1.959
same,Log2(fold-change) CTBS,"lysosomal genes; gene CTBS, 1 µM, vs DMSO",-0.006
same,Log2(fold-change) CTNS,"lysosomal genes; gene CTNS, 1 µM, vs DMSO",1.077
same,Log2(fold-change) CTSA,"lysosomal genes; gene CTSA, 1 µM, vs DMSO",1.344
same,Log2(fold-change) CTSB,"lysosomal genes; gene CTSB, 1 µM, vs DMSO",0.947
same,Log2(fold-change) CTSC,"lysosomal genes; gene CTSC, 1 µM, vs DMSO",0.179
same,Log2(fold-change) CTSD,"lysosomal genes; gene CTSD, 1 µM, vs DMSO",1.383
same,Log2(fold-change) CTSF,"lysosomal genes; gene CTSF, 1 µM, vs DMSO",1.580
same,Log2(fold-change) CTSH,"lysosomal genes; gene CTSH, 1 µM, vs DMSO",2.652
same,Log2(fold-change) CTSK,"lysosomal genes; gene CTSK, 1 µM, vs DMSO",2.602
same,Log2(fold-change) CTSS,"lysosomal genes; gene CTSS, 1 µM, vs DMSO",1.574
same,Log2(fold-change) CTSZ,"lysosomal genes; gene CTSZ, 1 µM, vs DMSO",0.095
same,Log2(fold-change) DNASE2,"lysosomal genes; gene DNASE2, 1 µM, vs DMSO",0.759
same,Log2(fold-change) ENTPD4,"lysosomal genes; gene ENTPD4, 1 µM, vs DMSO",-0.066
same,Log2(fold-change) EPDR1,"lysosomal genes; gene EPDR1, 1 µM, vs DMSO",0.350
same,Log2(fold-change) FUCA1,"lysosomal genes; gene FUCA1, 1 µM, vs DMSO",2.294
same,Log2(fold-change) GAA,"lysosomal genes; gene GAA, 1 µM, vs DMSO",1.285
same,Log2(fold-change) GALC,"lysosomal genes; gene GALC, 1 µM, vs DMSO",0.272
same,Log2(fold-change) GALNS,"lysosomal genes; gene GALNS, 1 µM, vs DMSO",0.664
same,Log2(fold-change) GBA,"lysosomal genes; gene GBA, 1 µM, vs DMSO",0.975
same,Log2(fold-change) GGH,"lysosomal genes; gene GGH, 1 µM, vs DMSO",-0.787
same,Log2(fold-change) GLA,"lysosomal genes; gene GLA, 1 µM, vs DMSO",0.381
same,Log2(fold-change) GLB1,"lysosomal genes; gene GLB1, 1 µM, vs DMSO",0.633
same,Log2(fold-change) GM2A,"lysosomal genes; gene GM2A, 1 µM, vs DMSO",0.722
same,Log2(fold-change) GNS,"lysosomal genes; gene GNS, 1 µM, vs DMSO",1.166
same,Log2(fold-change) GUSB,"lysosomal genes; gene GUSB, 1 µM, vs DMSO",-0.134
same,Log2(fold-change) HEXA,"lysosomal genes; gene HEXA, 1 µM, vs DMSO",1.135
same,Log2(fold-change) HEXB,"lysosomal genes; gene HEXB, 1 µM, vs DMSO",1.117
same,Log2(fold-change) HGSNAT,"lysosomal genes; gene HGSNAT, 1 µM, vs DMSO",0.896
same,Log2(fold-change) HPSE,"lysosomal genes; gene HPSE, 1 µM, vs DMSO",1.426
same,Log2(fold-change) HYAL1,"lysosomal genes; gene HYAL1, 1 µM, vs DMSO",0.217
same,Log2(fold-change) HYAL2,"lysosomal genes; gene HYAL2, 1 µM, vs DMSO",-0.168
same,Log2(fold-change) IDS,"lysosomal genes; gene IDS, 1 µM, vs DMSO",1.156
same,Log2(fold-change) IDUA,"lysosomal genes; gene IDUA, 1 µM, vs DMSO",1.057
same,Log2(fold-change) IFI30,"lysosomal genes; gene IFI30, 1 µM, vs DMSO",1.145
same,Log2(fold-change) LAMP1,"lysosomal genes; gene LAMP1, 1 µM, vs DMSO",1.227
same,Log2(fold-change) LAMP2,"lysosomal genes; gene LAMP2, 1 µM, vs DMSO",1.082
same,Log2(fold-change) LAPTM4A,"lysosomal genes; gene LAPTM4A, 1 µM, vs DMSO",0.460
same,Log2(fold-change) LAPTM5,"lysosomal genes; gene LAPTM5, 1 µM, vs DMSO",0.199
same,Log2(fold-change) LGMN,"lysosomal genes; gene LGMN, 1 µM, vs DMSO",1.455
same,Log2(fold-change) LIPA,"lysosomal genes; gene LIPA, 1 µM, vs DMSO",0.574
same,Log2(fold-change) LITAF,"lysosomal genes; gene LITAF, 1 µM, vs DMSO",1.022
same,Log2(fold-change) LMBRD1,"lysosomal genes; gene LMBRD1, 1 µM, vs DMSO",0.119
same,Log2(fold-change) MAN2B1,"lysosomal genes; gene MAN2B1, 1 µM, vs DMSO",0.586
same,Log2(fold-change) MAN2B2,"lysosomal genes; gene MAN2B2, 1 µM, vs DMSO",0.870
same,Log2(fold-change) MANBA,"lysosomal genes; gene MANBA, 1 µM, vs DMSO",1.687
same,Log2(fold-change) MCOLN1,"lysosomal genes; gene MCOLN1, 1 µM, vs DMSO",2.564
same,Log2(fold-change) MFSD8,"lysosomal genes; gene MFSD8, 1 µM, vs DMSO",-0.317
same,Log2(fold-change) MPO,"lysosomal genes; gene MPO, 1 µM, vs DMSO",1.298
same,Log2(fold-change) NAAA,"lysosomal genes; gene NAAA, 1 µM, vs DMSO",0.334
same,Log2(fold-change) NAGA,"lysosomal genes; gene NAGA, 1 µM, vs DMSO",0.034
same,Log2(fold-change) NAGLU,"lysosomal genes; gene NAGLU, 1 µM, vs DMSO",0.982
same,Log2(fold-change) NCSTN,"lysosomal genes; gene NCSTN, 1 µM, vs DMSO",0.166
same,Log2(fold-change) NEU1,"lysosomal genes; gene NEU1, 1 µM, vs DMSO",2.366
same,Log2(fold-change) NEU4,"lysosomal genes; gene NEU4, 1 µM, vs DMSO",1.289
same,Log2(fold-change) NPC1,"lysosomal genes; gene NPC1, 1 µM, vs DMSO",1.530
same,Log2(fold-change) NPC2,"lysosomal genes; gene NPC2, 1 µM, vs DMSO",1.822
same,Log2(fold-change) OSTM1,"lysosomal genes; gene OSTM1, 1 µM, vs DMSO",1.559
same,Log2(fold-change) PCYOX1,"lysosomal genes; gene PCYOX1, 1 µM, vs DMSO",0.963
same,Log2(fold-change) PPT1,"lysosomal genes; gene PPT1, 1 µM, vs DMSO",-0.819
same,Log2(fold-change) PPT2,"lysosomal genes; gene PPT2, 1 µM, vs DMSO",-0.987
same,Log2(fold-change) PSAP,"lysosomal genes; gene PSAP, 1 µM, vs DMSO",1.511
same,Log2(fold-change) RNASET2,"lysosomal genes; gene RNASET2, 1 µM, vs DMSO",1.008
same,Log2(fold-change) SCARB2,"lysosomal genes; gene SCARB2, 1 µM, vs DMSO",0.201
same,Log2(fold-change) SCPEP1,"lysosomal genes; gene SCPEP1, 1 µM, vs DMSO",1.441
same,Log2(fold-change) SGSH,"lysosomal genes; gene SGSH, 1 µM, vs DMSO",0.983
same,Log2(fold-change) SIAE,"lysosomal genes; gene SIAE, 1 µM, vs DMSO",0.365
same,Log2(fold-change) SLC17A5,"lysosomal genes; gene SLC17A5, 1 µM, vs DMSO",1.220
same,Log2(fold-change) SLC36A1,"lysosomal genes; gene SLC36A1, 1 µM, vs DMSO",0.968
same,Log2(fold-change) SMPD1,"lysosomal genes; gene SMPD1, 1 µM, vs DMSO",0.723
same,Log2(fold-change) TMEM74,"lysosomal genes; gene TMEM74, 1 µM, vs DMSO",2.173
same,Log2(fold-change) TMEM92,"lysosomal genes; gene TMEM92, 1 µM, vs DMSO",-1.444
same,Log2(fold-change) TPP1,"lysosomal genes; gene TPP1, 1 µM, vs DMSO",1.361
